Assays:
Assay type in all cases: in vivo
[1] = test system: summer wheat (TRZAS, cv. Triso); experiment: Reduction of damage by mesosulfuron-methyl on summer wheat (greenhouse, post-emergence safener test); design: key: 0: no reduction in damage (appearance corresponding to the herbicide control); 1: slight reduction in damage; 2: distinct reduction in damage; 3: significant reduction in damage; 4: complete reduction in damage (appearance corresponding to the untreated control); conditions: mesosulfuron-methyl 40 g/ha, visual, 12-13 days after application
Procedure: (§1) The seeds of the crop plants to be treated were laid out in soil in plastic pots (diameter ˜4 cm), covered with soil and grown in a greenhouse under good conditions for germination and growth. The trial plants were treated at the early leaf stage (BBCH10-BBCH12). In the course of this, the inventive compounds of the general formula (I) formulated in the form of wettable powders (WP) were sprayed onto the above-ground parts of the plants as an aqueous suspension with a water application rate corresponding to 800 l/ha with addition of wetting agent (Mero, 0.2%) in the specified dose. This was followed by the application of the herbicide. For this purpose, mesosulfuron-methyl, formulated in the form of water-dispersible granules (WG), was sprayed onto the above-ground parts of the plants in the form of an aqueous dispersion with a water application rate corresponding to 800 l/ha with addition of wetting agent (Biopower, 1 l/ha) in a dose of 40 g/ha. The dose of the herbicide was chosen here such that it causes average, visually clearly apparent damage (50-60%) compared to untreated crop plants at the evaluation time on a control group of crop plants without safener treatment that were included in the same trial. After application, the plants were cultivated under good growth conditions in a greenhouse. 12-13 days after application, the efficacy of the test compounds was assessed visually. For this purpose, the appearance of the plants treated with the test compound and herbicide was compared to the corresponding herbicide controls (without safener; with clearly visible damage) and the untreated controls (without damage). The damage-reducing effect of the test compounds was expressed here separately for 2 repeats in graded efficacy codes according to the following scheme: • 0: no reduction in damage (appearance corresponding to the herbicide control) • 1: slight reduction in damage • 2: distinct reduction in damage • 3: significant reduction in damage • 4: complete reduction in damage (appearance corresponding to the untreated control)

[2] = test system: summer barley (HORVS, cv. Quench); experiment: Reduction of damage by mesosulfuron-methyl on summer barley (greenhouse, post-emergence safener test); design: key: 0: no reduction in damage (appearance corresponding to the herbicide control); 1: slight reduction in damage; 2: distinct reduction in damage; 3: significant reduction in damage; 4: complete reduction in damage (appearance corresponding to the untreated control); conditions: safener 100 g/ha, mesosulfuron-methyl 40 g/ha, visual, 12-13 days after application
Procedure: as §1

[3] = test system: summer barley (HORVS; cv. Quench); experiment: Comparative herbicide/safener combination test, damage by mesosulfuron-methyl + iodosulfuron-methyl-sodium; conditions: safener 20 g a.i./ha, damage without safener 50%
Procedure: (§2) The seeds of the crop plants to be treated were laid out in soil in wood fiber pots (diameter ˜7 cm), covered with soil and grown in a greenhouse under good conditions for germination and growth. The trial plants were treated at the early leaf stage (BBCH11-12). For this purpose, the herbicides and safeners used were formulated as wettable powders (WP), mixed in accordance with the dose specified in each case, and sprayed onto the above-ground parts of the plants as an aqueous suspension at a water application rate corresponding to 300 l/ha with addition of wetting agent (Biopower, 0.2%). The herbicidal effects were created using a mixture of mesosulfuron-methyl (40 g a.i./ha) and iodosulfuron-methyl-sodium (8 g a.i./ha). The total herbicide dose was chosen here such that it causes average, visually clearly apparent damage (min. 20%, max. 60%) compared to untreated crop plants at the evaluation time on a control group of crop plants without safener treatment that were included in the same trial. After application, the plants were cultivated under good growth conditions in a greenhouse. 20 days after application, the herbicide damage was assessed visually. The damage was assessed visually on a scale of 0-100% by comparison with untreated control plants, and averaged over 2 repeats per treatment.

[4] = test system: durum wheat (TRZDU; cv. Joyau); experiment: as above; conditions: safener 20 g a.i./ha, damage without safener 20%
Procedure: as §2

[5] = test system: winter barley (HORVW; cv. Zzoom); experiment: as above; conditions: safener 20 g a.i./ha, damage without safener 55%
Procedure: as §2

[6] = mesosulfuron-methyl 40 + iodosulfuron-methyl-sodium 8 g a.i./ha, 20 days after application

Row | SMILES | Efficacy of the safener [Efficacy Code] ([1]; safener 100 g/ha) | Efficacy of the safener [Efficacy Code] ([1]; safener 500 g/ha) | Efficacy of the safener [Efficacy Code] [2] | Reduction in damage by safener (difference) [3] | Reduction in damage by safener (in %) [3] | Damage to crop plant by herbicide treatment WITH SAFENER [3, 6] | Reduction in damage by safener (difference) [4] | Reduction in damage by safener (in %) [4] | Damage to crop plant by herbicide treatment WITH SAFENER [4, 6] | Reduction in damage by safener (difference) [5] | Reduction in damage by safener (in %) [5] | Damage to crop plant by herbicide treatment WITH SAFENER [5, 6]
1 | CCOC(=O)COc1nc(-c2ccc(F)cc2F)n(-c2ccc(Br)cc2F)n1 [I.41-1] | 2 | 2 | 3 | – | – | – | – | – | – | – | – | –
2 | COC(=O)CCOC(=O)COc1nc(-c2ccc(F)cc2F)n(-c2ccc(Br)cc2F)n1 [I.61-1] | – | – | 2 | – | – | – | – | – | – | – | – | –
3 | O=C(COc1nc(-c2ccc(F)cc2F)n(-c2ccc(Br)cc2F)n1)OCC1CCOC1 (centres unmarked) [I.63-1] | – | – | 2 | – | – | – | – | – | – | – | – | –
4 | COCCOC(=O)COc1nc(-c2ccc(F)cc2F)n(-c2ccc(Br)cc2F)n1 [I.67-1] | 2 | 3 | 3 | 50 | 100% | 0% | 20 | 100% | 0% | 45 | 82% | 10%

Reference: patent publication US20260144252A1, “BROMINE- OR IODINE-PARA-SUBSTITUTED [(1,5-DIPHENYL-1H-1,2,4-TRIAZOL-3-YL)OXY]ACETIC ACID DERIVATIVES AND THEIR SALTS, AGENTS FOR PROTECTING USEFUL PLANTS OR CROP PLANTS COMPRISING THEM, METHODS FOR PRODUCING THEM AND THEIR USE AS SAFENERS” (Bayer Aktiengesellschaft, priority 2022, published 2026)
